Assay results published in patent publication US20200246316A1, “METHODS OF TREATING POST-SURGICAL PAIN WITH A THIAZOLINE ANTI-HYPERALGESIC AGENT” (CERSCI THERAPEUTICS, INC., priority 2019, published 2020).
“Also recorded” adds a separate entry of the source. Where a name gives a salt, the structure may show the parent alone.

What was measured:
pKa values = assay type: physicochemical
[1] = Dose formulation stability (HPLC/UV); assay type: physicochemical
Method: Dose formulation analysis for all good laboratory practice (GLP) general toxicology studies was performed using a validated high-performance liquid chromatography (HPLC)/ultraviolet (UV) analytical method (2750-001-001 Dose Formulation Method 1). The vehicle used in the in vivo toxicology studies was 0.5% HPMC). The analytical method utilized HPLC with monitoring at 227 nm with an isocratic mobile phase of methanol with the column temperature set to 25° C. Linearity over a range of 1.0 to 200 mg/mL was observed. Dose formulations over this range were stable at room temperature for up to 13 days and were stable when stored frozen at −20° C. for up to 85 days.
In addition, formulation analysis for in vitro genetic toxicology studies was performed using a validated HPLC/UV analytical method (2750-001-001 Dose Formulation Method No. 2) with linearity over a range of 0.001 to 50 mg/mL. Dose formulations for in vitro assays were stable at room temperature for up to 1 day and when stored frozen at −20° C. for up to 45 days.

PN-mediated cytotoxicity = assay: Cell-based assays of PN-mediated cytotoxicity
Text: (§1) In cell-based assays of PN-mediated cytotoxicity, Compound 1 is protective. […] Chemically, Compound 1 can also react stoichiometrically with peroxynitrite to form a para-nitro adduct. Without being bound by theory, by targeting and removing peroxynitrite and peroxide, Compound 1 can disrupt the ensuing cascades that lead to hypersensitivity (protein modification, ion channel hyperexcitation) thus providing a long duration event in terms of pain relief.

peroxynitrite = assay: Models of protein nitration; assay type: biochemical; conditions: physiological conditions (neutral pH)
Text: as §1

[2] = tested on: lactoperoxidase oxidation (mediated by peroxide); assay: Lactoperoxidase oxidation (mediated by peroxide); assay type: biochemical; conditions: physiological conditions (neutral pH)
Text: as §1

[3] = Rat 7-day repeat dose PO study (toxicokinetics, MTD); assay type: in vivo; conditions: 2000 mg/kg
Text: The vehicle was 0.5% HPMC.
Toxicokinetic (TK) results were as follows:

[4] = Dog single dose study, IV 10 mg/kg and oral 10 and 100 mg/kg; assay type: in vivo; conditions: for peak plasma concentration: fasted
Method: In another study, Compound 1 was administered IV as a single dose to fasted beagle dogs at 10 mg/kg and orally at 10 and 100 mg/kg. Compound 1 was rapidly and well absorbed orally, within 1 hr, reaching peak plasma concentrations of 15 and 108 μg/mL at 10 and 100 mg/kg doses, respectively. The compound distributed readily in tissues with a moderate steady-state volume of distribution (0.3 L/kg).

[5] = Dog 7-day repeat dose PO study; assay type: in vivo; conditions: plasma, N = 1
Method: The objective was to develop a preliminary toxicity profile of Compound 1 following daily oral (gavage) administration for 7 days to male and female dogs to support dose selection for a 28-day toxicity study in dogs. Doses were selected based on the results of the MTD phase. Dose levels were 0 (Vehicle Control), 200, 350 and 400 mg/kg (1 dog/sex/group). The vehicle was 0.5% aqueous HPMC.
The animals used in this study were returned to the holding colony

[6] = Rat brain distribution and pharmacokinetic study; assay type: in vivo
Text: A rat brain distribution study performed in order to determine standard pharmacokinetic parameters and to assess the brain penetration properties of Compound 1 administered orally and intravenously.

[7] = Stability in plasma from a variety of species; assay type: in vitro ADME
Text: Further metabolism work in additional species will be undertaken.

MATE [8] = target: T1, MATE (Homo sapiens, UniProt Q86VL8); assay: Inhibition of uptake (SLC) transporters; assay type: in vitro ADME; conditions: MATE2-K; HEK293 cells, probe [14C]-metformin (10 μM), pH 8.5, 0.3-600 μM tested
T1 construct: expressed in transfected cells; host or cells: HEK293 cells
T1 sequence (Q86VL8 1-566 isoform Q86VL8-3): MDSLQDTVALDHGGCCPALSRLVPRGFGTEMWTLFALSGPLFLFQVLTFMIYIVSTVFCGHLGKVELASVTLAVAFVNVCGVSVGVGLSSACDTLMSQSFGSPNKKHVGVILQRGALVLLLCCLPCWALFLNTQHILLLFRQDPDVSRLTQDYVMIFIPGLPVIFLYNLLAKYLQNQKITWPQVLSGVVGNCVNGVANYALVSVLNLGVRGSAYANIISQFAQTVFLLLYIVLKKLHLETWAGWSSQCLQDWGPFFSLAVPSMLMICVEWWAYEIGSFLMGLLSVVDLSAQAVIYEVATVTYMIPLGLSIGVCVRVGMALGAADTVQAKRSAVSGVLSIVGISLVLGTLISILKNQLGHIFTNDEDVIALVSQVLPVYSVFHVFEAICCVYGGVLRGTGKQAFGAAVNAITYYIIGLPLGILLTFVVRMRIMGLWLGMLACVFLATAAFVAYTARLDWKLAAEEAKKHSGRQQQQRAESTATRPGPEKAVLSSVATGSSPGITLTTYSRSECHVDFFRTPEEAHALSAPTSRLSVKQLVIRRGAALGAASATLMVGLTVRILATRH

MATE [9] = target: T2, MATE (Homo sapiens, UniProt Q96FL8); assay: Inhibition of uptake (SLC) transporters; assay type: in vitro ADME; conditions: MATE1; HEK293 cells, probe [14C]-metformin (10 μM), pH 8.5, 0.3-600 μM tested
T2 construct: expressed in transfected cells; host or cells: HEK293 cells
T2 sequence (Q96FL8 whole entry): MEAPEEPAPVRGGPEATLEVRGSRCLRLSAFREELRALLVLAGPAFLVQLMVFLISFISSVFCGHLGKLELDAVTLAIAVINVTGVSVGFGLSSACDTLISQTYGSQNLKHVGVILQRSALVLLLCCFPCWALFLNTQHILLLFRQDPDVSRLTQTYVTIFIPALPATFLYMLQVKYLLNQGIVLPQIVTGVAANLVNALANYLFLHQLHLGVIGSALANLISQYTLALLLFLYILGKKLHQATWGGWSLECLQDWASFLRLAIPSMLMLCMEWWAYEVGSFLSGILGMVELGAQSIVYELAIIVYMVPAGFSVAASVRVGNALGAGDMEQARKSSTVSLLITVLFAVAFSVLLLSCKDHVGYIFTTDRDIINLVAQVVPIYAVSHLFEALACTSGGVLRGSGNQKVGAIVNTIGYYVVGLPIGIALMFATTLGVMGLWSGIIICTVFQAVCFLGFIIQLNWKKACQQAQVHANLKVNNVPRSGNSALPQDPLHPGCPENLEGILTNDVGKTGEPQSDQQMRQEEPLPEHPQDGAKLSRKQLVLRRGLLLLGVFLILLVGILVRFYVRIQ

BCRP = BCRP (Homo sapiens, UniProt Q9UNQ0); assay: Inhibition of efflux (ABC) transporters
Chain of BCRP (Q9UNQ0 whole entry): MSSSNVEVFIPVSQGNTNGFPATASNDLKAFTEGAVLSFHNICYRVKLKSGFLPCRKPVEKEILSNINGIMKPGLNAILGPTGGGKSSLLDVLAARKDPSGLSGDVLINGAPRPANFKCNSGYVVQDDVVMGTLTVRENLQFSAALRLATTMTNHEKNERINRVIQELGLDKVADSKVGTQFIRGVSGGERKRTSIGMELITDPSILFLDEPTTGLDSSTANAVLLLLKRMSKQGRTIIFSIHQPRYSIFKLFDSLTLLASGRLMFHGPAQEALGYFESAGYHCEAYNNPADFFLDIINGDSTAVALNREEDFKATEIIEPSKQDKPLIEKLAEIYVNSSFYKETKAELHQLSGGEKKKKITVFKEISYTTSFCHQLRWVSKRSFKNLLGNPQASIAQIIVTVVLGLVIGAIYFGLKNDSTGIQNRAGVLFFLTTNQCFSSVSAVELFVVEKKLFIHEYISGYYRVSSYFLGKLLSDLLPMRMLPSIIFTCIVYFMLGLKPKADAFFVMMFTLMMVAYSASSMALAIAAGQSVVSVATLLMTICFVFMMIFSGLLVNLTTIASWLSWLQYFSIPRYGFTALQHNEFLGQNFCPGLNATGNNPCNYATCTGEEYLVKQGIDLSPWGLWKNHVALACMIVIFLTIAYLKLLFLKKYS

[10] = both, Sprague Dawley (Hsd:SD), rat, in vivo, po
[11] = female, 200 mg/kg, Day 1, 200 mg/kg PO, F
[12] = female, 200 mg/kg, Day 7, 200 mg/kg PO, F
[13] = female, 350 mg/kg, Day 1, 350 mg/kg PO, F
[14] = female, 350 mg/kg, Day 7, 350 mg/kg PO, F
[15] = female, 400 mg/kg, Day 1, 400 mg/kg PO, F
[16] = female, 400 mg/kg, Day 7, 400 mg/kg PO, F
[17] = male, 200 mg/kg, Day 1, 200 mg/kg PO, M
[18] = male, 200 mg/kg, Day 7, 200 mg/kg PO, M
[19] = male, 350 mg/kg, Day 1, 350 mg/kg PO, M
[20] = male, 350 mg/kg, Day 7, 350 mg/kg PO, M
[21] = male, 400 mg/kg, Day 1, 400 mg/kg PO, M
[22] = male, 400 mg/kg, Day 7, 400 mg/kg PO, M

`CC1(C)SC(Nc2ccccc2O)=N[C@@H]1C(=O)O` [Compound 1, (R)-2-(2-hydroxyphenylamino)-5,5-dimethyl-4,5-dihydrothiazole-4-carboxylic acid mono-hydrochloride] showed a pKa (pKa values; Acidic (first)) of 2.29 ± 0.02, a pKa (pKa values; Acidic (second)) of 10.24 ± 0.03 and a pKa (pKa values; Basic) of 6.97 ± 0.01. For the same compound, the dose formulation stability ([1]; 0.5% HPMC, 1.0 to 200 mg/mL, room temperature) was “up to 13 days”, the dose formulation stability ([1]; 0.5% HPMC, 1.0 to 200 mg/mL, stored frozen at −20° C.) was “up to 85 days” and the dose formulation stability ([1]; formulations for in vitro assays, 0.001 to 50 mg/mL, room temperature) was “up to 1 day”. For the same compound, the dose formulation stability ([1]; formulations for in vitro assays, 0.001 to 50 mg/mL, stored frozen at −20° C.) was “up to 45 days”, the “protection from PN-mediated cytotoxicity” value (PN-mediated cytotoxicity) was “protective” and the “removal of peroxynitrite in models of protein nitration” value (peroxynitrite) was “catalytically remove peroxynitrite”. The “removal of peroxynitrite in lactoperoxidase oxidation” value [2] was “catalytically remove peroxynitrite”, the Cmax ([3]; both sexes, Sprague Dawley (Hsd:SD), rat, in vivo, po) was 121 µg/mL and the AUC(0-t) ([3]; both sexes, Sprague Dawley (Hsd:SD), rat, in vivo, po, AUC0-24 (mean)) was 1370 µg·h/mL. For the same compound, the Cmax ([3]; both sexes, Sprague Dawley (Hsd:SD), rat, in vivo, po, Seventh Daily Dose, 2000 mg/kg PO, read-out: Cmax (mean)) was 119 µg/mL, the half-life ([3]; both sexes, Sprague Dawley (Hsd:SD), rat, in vivo, po, T1/2 (mean)) was 3.9 h and the Tmax ([3]; both sexes, Sprague Dawley (Hsd:SD), rat, in vivo, po, Tmax (mean)) was 2 h. For the same compound, the MTD at 7 days ([3]; both sexes, Sprague-Dawley (Hsd:SD), rat, in vivo, oral gavage 7 days) was 2000 mg/kg, the “AUC0-24 (mean)” value [3, 10] was 1609 µg·h/mL and the “T1/2 (mean)” value [3, 10] was 6.7 h. For the same compound, the “Tmax (mean)” value [3, 10] was 1 h, the tolerability ([3]; female rats, oral gavage 7 days) was “tolerated” and the peak plasma concentration ([4]; 10 mg/kg oral) was 15 µg/mL. For the same compound, the peak plasma concentration ([4]; 100 mg/kg oral) was 108 µg/mL, the bioavailability ([4]; beagle, dog, plasma, po, both 10 and 100 mg/kg doses) was 75% and the “time to peak plasma concentration” value ([4]; oral, fasted beagle dogs) was at most 1 h. For the same compound, the AUC(0-t) [5, 11] was 582 µg·h/mL, the Cmax [5, 11] was 152 µg/mL and the half-life [5, 11] was 1.3 h. The AUC(0-t) [5, 12] was 411 µg·h/mL, the Cmax [5, 12] was 103 µg/mL and the half-life [5, 12] was 1.5 h. For the same compound, the AUC(0-t) [5, 13] was 834 µg·h/mL, the Cmax [5, 13] was 228 µg/mL and the half-life [5, 13] was 1.2 h. It also gave an AUC(0-t) [5, 14] of 738 µg·h/mL, a Cmax [5, 14] of 207 µg/mL and a Tmax [5, 14] of 0.5 h. The half-life [5, 14] was 2.4 h, the AUC(0-t) [5, 15] was 464 µg·h/mL and the Cmax [5, 15] was 109 µg/mL. The Tmax [5, 15] was 1 h, the AUC(0-t) [5, 16] was 751 µg·h/mL and the Cmax [5, 16] was 183 µg/mL. For the same compound, the half-life [5, 16] was 2.5 h, the AUC(0-t) [5, 17] was 538 µg·h/mL and the Cmax [5, 17] was 150 µg/mL. For the same compound, the half-life [5, 17] was 1.1 h, the AUC(0-t) [5, 18] was 540 µg·h/mL and the Tmax [5, 18] was 1 h. The half-life [5, 18] was 1.4 h, the AUC(0-t) [5, 19] was 613 µg·h/mL and the Cmax [5, 19] was 176 µg/mL. For the same compound, the half-life [5, 19] was 1.1 h, the AUC(0-t) [5, 20] was 591 µg·h/mL and the Cmax [5, 20] was 184 µg/mL. It also gave a Tmax [5, 20] of 1 h, a half-life [5, 20] of 1.2 h and an AUC(0-t) [5, 21] of 657 µg·h/mL. For the same compound, the Cmax [5, 21] was 167 µg/mL, the half-life [5, 21] was 1.2 h and the AUC(0-t) [5, 22] was 210 µg·h/mL. The Cmax [5, 22] was 69 µg/mL, the Tmax [5, 22] was 1 h and the half-life [5, 22] was 1.3 h. For the same compound, the peak plasma concentration ([6]; 30 mg/kg oral) was 9 µg/mL, the “time to peak plasma concentration” value ([6]; 30 mg/kg oral) was at most 1 h and the bioavailability ([6]; rat, in vivo, 30 mg/kg oral dose) was 111%. The half-life ([6]; rat, in vivo, 30 mg/kg oral dose, read-out: terminal half-life (converted)) was 1.6 h, the Kp at 1 h ([6]; rat, in vivo, 1 h after IV administration, read-out: brain-to-plasma concentration ratio) was 0.02 and the brain/tissue distribution ([6]; rat, in vivo, mono-hydrochloride) was “distributes to tissues but not to brain to an appreciable extent; also recorded: peripherally restricted”. The stability in plasma [7] was “stable”, the IC50 (MATE [8]) was over 600 µM and the IC50 (MATE [9]) was over 600 µM. The IC50 (BCRP) was over 30 µM and the “transporter inhibition” value (BCRP; BCRP) was “modestly inhibits”.
